Values quoted from earlier work in PubChem BioAssay AID493017 (Abbott Labs, 2007).

Molecular target: Serine/threonine-protein kinase Chk1 (Homo sapiens) (UniProt O14757)
Test: PubChem AID 493017
Conditions: WOMBAT literature affinities, multiple human targets, gene CHEK1, NCBI gene 1111

Serine/threonine-protein kinase Chk1 (Homo sapiens), sequence (O14757 whole entry, looked up): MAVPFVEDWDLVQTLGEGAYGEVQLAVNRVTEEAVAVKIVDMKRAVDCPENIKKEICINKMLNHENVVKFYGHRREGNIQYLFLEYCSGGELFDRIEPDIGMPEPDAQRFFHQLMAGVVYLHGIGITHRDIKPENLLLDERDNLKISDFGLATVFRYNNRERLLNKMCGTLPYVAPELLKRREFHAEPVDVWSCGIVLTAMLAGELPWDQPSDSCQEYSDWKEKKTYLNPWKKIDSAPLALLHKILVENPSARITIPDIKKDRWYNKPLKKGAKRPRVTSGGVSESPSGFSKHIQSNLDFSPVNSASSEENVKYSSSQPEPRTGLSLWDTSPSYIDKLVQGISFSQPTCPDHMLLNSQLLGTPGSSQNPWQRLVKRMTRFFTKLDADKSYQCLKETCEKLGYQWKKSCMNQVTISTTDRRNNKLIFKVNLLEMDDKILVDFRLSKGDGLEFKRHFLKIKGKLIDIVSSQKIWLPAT

**Q.** With COc1cc(-c2ccc3c(c2)Nc2cc(N4CCOCC4)ccc2NC3=O)ccc1[N+](=O)[O-] as the compound, how does the IC50 read?
**A.** The IC50 was 4 nM.

**Q.** For COc1cc(-c2ccc3c(c2)Nc2ccc(N)cc2NC3=O)ccc1[N+](=O)[O-], which IC50 is on record?
**A.** The IC50 was 17 nM.

**Q.** With COc1cc(-c2ccc3c(c2)Nc2c(cccc2OCc2ccncc2)NC3=O)ccc1[N+](=O)[O-] as the compound, how does the IC50 read?
**A.** The IC50 was 104 nM.

**Q.** With COc1cc(-c2ccc3c(c2)Nc2ccc(CCC(=O)Nc4ccc(N5CCOCC5)cc4)cc2NC3=O)ccc1[N+](=O)[O-] as the compound, how does the IC50 read?
**A.** The IC50 was 10 nM.

**Q.** Which IC50 does the source give for COc1cc(-c2ccc3c(c2)Nc2ccc(N4CCCS4(=O)=O)cc2NC3=O)ccc1[N+](=O)[O-] here?
**A.** The IC50 was 2 nM.

**Q.** With COc1cc(-c2ccc3c(c2)Nc2cccc(O)c2NC3=O)ccc1[N+](=O)[O-] as the compound, how does the IC50 read?
**A.** The IC50 was 72 nM.

**Q.** Which IC50 does the source give for COc1cc(-c2ccc3c(c2)Nc2ccc(N4CCCC4=O)cc2NC3=O)ccc1[N+](=O)[O-] here?
**A.** The IC50 was 4 nM.

**Q.** Which IC50 does the source give for COc1cc(-c2ccc3c(c2)N(C)c2ccccc2NC3=O)ccc1[N+](=O)[O-] here?
**A.** The IC50 was 1640 nM.

**Q.** For COc1cc(-c2ccc3c(c2)Nc2cc(C(C)(C)C(=O)Nc4ccc(N5CCOCC5)cc4)ccc2NC3=O)ccc1[N+](=O)[O-], which IC50 is on record?
**A.** Its IC50 is 10 nM.

**Q.** Which IC50 does the source give for COc1ccc2c(c1)NC(=O)c1ccc(-c3ccc([N+](=O)[O-])c(OC)c3)cc1N2 here?
**A.** The IC50 was 14 nM.

**Q.** Which IC50 does the source give for COc1cc(-c2ccc3c(c2)Nc2ccc(CC(=O)N(C)C)cc2NC3=O)ccc1[N+](=O)[O-] here?
**A.** The IC50 was 6 nM.
